One may read the IC50 as the point on the concentration scale where inhibition reaches its midpoint. A low value points to greater potency.

Data set [1] deals with T1, Xanthine dehydrogenase/oxidase (Homo sapiens, UniProt P47989). Kind of data set: Inhibition of xanthine oxidase (unknown origin) using xanthine as substrate after 10 mins by HPLC method.
The target of data set [2] is T1, Xanthine dehydrogenase/oxidase. Kind of data set: Inhibition of xanthine oxidase (unknown origin) using xanthine as substrate at 33 to 100 umol/L after 10 mins by HPLC method relative to control.

T1 sequence (P47989 whole entry): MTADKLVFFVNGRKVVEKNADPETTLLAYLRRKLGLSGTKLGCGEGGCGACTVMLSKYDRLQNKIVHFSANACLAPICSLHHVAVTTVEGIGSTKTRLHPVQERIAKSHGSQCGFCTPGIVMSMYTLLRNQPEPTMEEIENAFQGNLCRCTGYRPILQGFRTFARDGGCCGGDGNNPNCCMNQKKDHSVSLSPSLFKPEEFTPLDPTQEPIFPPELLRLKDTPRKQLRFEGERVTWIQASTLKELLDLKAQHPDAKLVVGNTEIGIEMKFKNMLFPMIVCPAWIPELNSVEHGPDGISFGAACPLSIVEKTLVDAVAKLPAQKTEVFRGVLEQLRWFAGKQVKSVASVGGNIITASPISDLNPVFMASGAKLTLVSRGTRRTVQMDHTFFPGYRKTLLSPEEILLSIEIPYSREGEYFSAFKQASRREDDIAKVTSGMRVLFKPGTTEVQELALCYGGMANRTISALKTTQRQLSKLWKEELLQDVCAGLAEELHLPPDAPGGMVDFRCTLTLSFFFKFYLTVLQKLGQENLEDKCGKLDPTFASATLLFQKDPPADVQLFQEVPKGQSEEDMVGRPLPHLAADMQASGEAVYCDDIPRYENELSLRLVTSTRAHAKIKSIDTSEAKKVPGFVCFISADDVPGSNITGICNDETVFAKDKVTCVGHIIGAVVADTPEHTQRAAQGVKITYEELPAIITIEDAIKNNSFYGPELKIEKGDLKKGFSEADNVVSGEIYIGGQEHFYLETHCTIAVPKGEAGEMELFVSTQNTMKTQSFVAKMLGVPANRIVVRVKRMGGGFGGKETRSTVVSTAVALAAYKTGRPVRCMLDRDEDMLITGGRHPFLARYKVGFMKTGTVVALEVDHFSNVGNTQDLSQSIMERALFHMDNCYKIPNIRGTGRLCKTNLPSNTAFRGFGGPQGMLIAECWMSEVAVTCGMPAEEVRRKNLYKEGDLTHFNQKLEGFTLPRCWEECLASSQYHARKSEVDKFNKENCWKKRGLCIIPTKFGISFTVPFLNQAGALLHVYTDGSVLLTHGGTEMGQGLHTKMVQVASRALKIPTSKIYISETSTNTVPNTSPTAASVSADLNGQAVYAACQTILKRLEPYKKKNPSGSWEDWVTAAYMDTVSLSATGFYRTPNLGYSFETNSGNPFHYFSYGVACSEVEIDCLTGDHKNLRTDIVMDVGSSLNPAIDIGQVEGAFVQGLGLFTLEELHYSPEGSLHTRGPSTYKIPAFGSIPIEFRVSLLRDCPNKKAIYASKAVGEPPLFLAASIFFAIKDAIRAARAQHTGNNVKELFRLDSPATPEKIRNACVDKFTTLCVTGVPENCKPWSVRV

For `CCOC(=O)C1=Nc2c(O)ccc(-c3cc(=O)c4c(O)cc(O)cc4o3)c2SC1`, in data set [1], half-maximal inhibition (IC50) required 1.7 µM. The “inhibition (INH)” value in data set [1] (human, 10 min) is given as “Dose-dependent effect”.

For the molecule `O=c1c(O)c(-c2ccc(O)cc2)oc2cc(O)cc(O)c12` [KAEMPFEROL], the “inhibition (INH)” value in data set [2] was more than 50%.

On to `O=c1cc(-c2ccc(O)c(O)c2)oc2cc(O)cc(O)c12` [LUTEOLIN], for which the “inhibition (INH)” value in data set [2] is given as more than 50%. Also, in data set [1], the IC50 turned out to be 7.8 µM.

As to `O=c1c(O)c(-c2cc(O)c(O)c(O)c2)oc2cc(O)cc(O)c12` [MYRICETIN], in data set [2], the “inhibition (INH)” value is more than 50%.

On to `O=c1c(O)c(-c2ccc(O)c(O)c2)oc2cc(O)cc(O)c12` [QUERCETIN], for which the “inhibition (INH)” value in data set [2] is recorded as more than 50%.
